Reference: patent publication US9125913B2, “Bcl-2-selective apoptosis-inducing agents for the treatment of cancer and immune diseases” (AbbVie Inc., priority 2008, dated 2015)

System: GST-Bcl-2
Test: TR-FRET binding assay, Bcl-2
Conditions: TR-FRET Ki values
Summary of the method: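 Compounds serially diluted in DMSO from 50 μM (2× starting concentration, 10% DMSO), mixed with GST-tagged protein, F-Bak peptide probe and Tb-labeled antibody, incubated 3 h at room temperature.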

SMILES | Binding selectivity ratio (Bcl-XL Ki/Bcl-2 Ki)
CC(C1=C(c2ccc(Cl)cc2)CC(C)(C)CC1)N1CCN(c2ccc(C(=O)NS(=O)(=O)c3ccc(NCCCN4CCOCC4)c([N+](=O)[O-])c3)c(Oc3ccc4[nH]ccc4c3)c2)CC1 (centres unmarked) [EXAMPLE 257, 4-(4-{1-[2-(4-chlorophenyl)-4,4-dimethylcyclohex-1-en-1-yl]ethyl}piperazin-1-yl)-2-(1H-indol-5-yloxy)-N-({4-[(3-morpholin-4-ylpropyl)amino]-3-nitrophenyl}sulfonyl)benzamide] | 100.2
CN1CCC(Nc2ccc(S(=O)(=O)NC(=O)c3ccc(N4CCN(Cc5cc(OCCO)ccc5-c5ccc(Cl)cc5)CC4)cc3Oc3cccc4[nH]ccc34)cc2[N+](=O)[O-])CC1 [EXAMPLE 221, 4-(4-{[4′-chloro-4-(2-hydroxyethoxy)-1,1′-biphenyl-2-yl]methyl}piperazin-1-yl)-2-(1H-indol-4-yloxy)-N-({4-[(1-methylpiperidin-4-yl)amino]-3-nitrophenyl}sulfonyl)benzamide] | 3005.2
CC1(C)CCC(CN2CCN(c3ccc(C(=O)NS(=O)(=O)c4ccc(NC5CCN(CCCO)CC5)c([N+](=O)[O-])c4)c(Oc4ccc5[nH]ccc5c4)c3)CC2)=C(c2ccc(Cl)cc2)C1 [EXAMPLE 197, 4-(4-{[2-(4-chlorophenyl)-4,4-dimethylcyclohex-1-en-1-yl]methyl}piperazin-1-yl)-N-[(4-{[1-(3-hydroxypropyl)piperidin-4-yl]amino}-3-nitrophenyl)sulfonyl]-2-(1H-indol-5-yloxy)benzamide] | 193
CN(C)CCCNc1ccc(S(=O)(=O)NC(=O)c2ccc(N3CCN(Cc4ccccc4-c4ccc(Cl)cc4)CC3)cc2Oc2ccccc2)cc1C(F)(F)F [Example 92, 4-{4-[(4′-chloro-1,1′-biphenyl-2-yl)methyl]piperazin-1-yl}-N-{[4-{[3-(dimethylamino)propyl]amino}-3-(trifluoromethyl)phenyl]sulfonyl}-2-phenoxybenzamide] | 79.7
O=C(NS(=O)(=O)c1ccc(NCC2CCOCC2)c([N+](=O)[O-])c1)c1ccc(N2CCN(Cc3cc(OCCO)ccc3-c3ccc(Cl)cc3)CC2)cc1Oc1cccc2[nH]ccc12 [EXAMPLE 213, 4-(4-{[4′-chloro-4-(2-hydroxyethoxy)-1,1′-biphenyl-2-yl]methyl}piperazin-1-yl)-2-(1H-indol-4-yloxy)-N-({3-nitro-4-[(tetrahydro-2H-pyran-4-ylmethyl)amino]phenyl}sulfonyl)benzamide] | >66000
CC1(C)CCC(CN2CCN(c3ccc(C(=O)NS(=O)(=O)c4ccc(OCC5CCOCC5)c([N+](=O)[O-])c4)c(Oc4ccc5[nH]ccc5c4)c3)CC2)=C(c2ccc(Cl)cc2)C1 [EXAMPLE 279, 4-(4-{[2-(4-chlorophenyl)-4,4-dimethylcyclohex-1-en-1-yl]methyl}piperazin-1-yl)-2-(1H-indol-5-yloxy)-N-{[3-nitro-4-(tetrahydro-2H-pyran-4-ylmethoxy)phenyl]sulfonyl}benzamide] | >6923.2
CC1(C)CCC(CN2CCN(c3ccc(C(=O)NS(=O)(=O)c4ccc(CCC5CCOCC5)c([N+](=O)[O-])c4)c(Oc4ccc5[nH]ccc5c4)c3)CC2)=C(c2ccc(Cl)cc2)C1 [EXAMPLE 296, 4-(4-{[2-(4-chlorophenyl)-4,4-dimethylcyclohex-1-en-1-yl]methyl}piperazin-1-yl)-2-(1H-indol-5-yloxy)-N-{[3-nitro-4-(2-tetrahydro-2H-pyran-4-ylethyl)phenyl]sulfonyl}benzamide] | >1014.4
CC1(C)CCC(CN2CCN(c3ccc(C(=O)NS(=O)(=O)c4ccc(NC5CCCCC5N)c([N+](=O)[O-])c4)c(Oc4ccc5[nH]ccc5c4)c3)CC2)=C(c2ccc(Cl)cc2)C1 (centres unmarked) [EXAMPLE 208, N-({4-[(2-aminocyclohexyl)amino]-3-nitrophenyl}sulfonyl)-4-(4-{[2-(4-chlorophenyl)-4,4-dimethylcyclohex-1-en-1-yl]methyl}piperazin-1-yl)-2-(1H-indol-5-yloxy)benzamide] | >1120.6
CC1(C)CCC(CN2CCN(c3ccc(C(=O)NS(=O)(=O)c4ccc(NCC5(F)CCOCC5)c([N+](=O)[O-])c4)c(Oc4cccc5[nH]cnc45)c3)CC2)=C(c2ccc(Cl)cc2)C1 [EXAMPLE 441, 2-(1H-benzimidazol-4-yloxy)-4-(4-{[2-(4-chlorophenyl)-4,4-dimethylcyclohex-1-en-1-yl]methyl}piperazin-1-yl)-N-[(4-{[(4-fluorotetrahydro-2H-pyran-4-yl)methyl]amino}-3-nitrophenyl)sulfonyl]benzamide] | 2421.9
CC1(C)CCC(CN2CCN(c3ccc(C(=O)NS(=O)(=O)c4ccc(OCCCS(C)(=O)=O)c([N+](=O)[O-])c4)c(Oc4cccc5[nH]ccc45)c3)CC2)=C(c2ccc(Cl)cc2)C1 [EXAMPLE 316, 4-(4-{[2-(4-chlorophenyl)-4,4-dimethylcyclohex-1-en-1-yl]methyl}piperazin-1-yl)-2-(1H-indol-4-yloxy)-N-({4-[3-(methylsulfonyl)propoxy]-3-nitrophenyl}sulfonyl)benzamide] | 533.7
CC1(C)CCC(CN2CCN(c3ccc(C(=O)NS(=O)(=O)c4ccc(NC5CCN(CCn6cccn6)CC5)c([N+](=O)[O-])c4)c(Oc4ccc5[nH]ccc5c4)c3)CC2)=C(c2ccc(Cl)cc2)C1 [EXAMPLE 243, 4-(4-{[2-(4-chlorophenyl)-4,4-dimethylcyclohex-1-en-1-yl]methyl}piperazin-1-yl)-2-(1H-indol-5-yloxy)-N-{[3-nitro-4-({1-[2-(1H-pyrazol-1-yl)ethyl]piperidin-4-yl}amino)phenyl]sulfonyl}benzamide] | >2357.6
CC1(C)CCC(CN2CCN(c3ccc(C(=O)NS(=O)(=O)c4ccc(NCC5CCS(=O)(=O)C5)c([N+](=O)[O-])c4)c(Oc4cccc5[nH]ccc45)c3)CC2)=C(c2ccc(Cl)cc2)C1 (centres unmarked) [EXAMPLE 326, 4-(4-{[2-(4-chlorophenyl)-4,4-dimethylcyclohex-1-en-1-yl]methyl}piperazin-1-yl)-N-[(4-{[(1,1-dioxidotetrahydrothien-3-yl)methyl]amino}-3-nitrophenyl)sulfonyl]-2-(1H-indol-4-yloxy)benzamide] | >5708.8
CC1(C)CCC(CN2CCN(c3ccc(C(=O)NS(=O)(=O)c4ccc(N[C@H]5CC[C@H](N6CCOCC6)CC5)c([N+](=O)[O-])c4)c(Oc4cccc5[nH]ccc45)c3)CC2)=C(c2ccc(Cl)cc2)C1 [EXAMPLE 204, Trans-4-(4-{[2-(4-chlorophenyl)-4,4-dimethylcyclohex-1-en-1-yl]methyl}piperazin-1-yl)-2-(1H-indol-4-yloxy)-N-({4-[(4-morpholin-4-ylcyclohexyl)amino]-3-nitrophenyl}sulfonyl)benzamide] | 291.3
CC1(C)CCC(CN2CCN(c3ccc(C(=O)NS(=O)(=O)c4ccc(NCC(F)(F)F)c([N+](=O)[O-])c4)c(Oc4ccc5[nH]ccc5c4)c3)CC2)=C(c2ccc(Cl)cc2)C1 [EXAMPLE 344, 4-(4-{[2-(4-chlorophenyl)-4,4-dimethylcyclohex-1-en-1-yl]methyl}piperazin-1-yl)-2-(1H-indol-5-yloxy)-N-({3-nitro-4-[(2,2,2-trifluoroethyl)amino]phenyl}sulfonyl)benzamide] | 1576.9
